How the values were obtained:
rat [1] = conditions: Peri- and post-natal toxicity study (Segment III); long evans; Injection; Subcutaneous; dose end: 3 PND; group: developmental; developmental / developmental landmark / vaginal opening / vaginal opening
rat [2] = conditions: Multigenerational reproductive toxicity study, sprague dawley, Oral, Water, dose end: 2 generation
mouse [3] = conditions: Prenatal developmental toxicity study, cd1, Oral, Gavage/Intubation, dose end: 15 GD
mouse [4] = conditions: Carcinogenicity, b6c3f1, Oral, Water, dose end: 103 week, group: systemic
rat [5] = conditions: Carcinogenicity, fischer, Oral, Water, dose end: 103 week, group: systemic
[6] = group: offspring, developmental / developmental landmark / preputial separation / preputial separation + systemic / in life observation / body weight / …
[7] = group: parental, systemic / in life observation / body weight / body weight + systemic / in life observation / body weight / body weight gain + systemic / in…
[8] = group: parental, systemic / in life observation / clinical signs / red or crusty deposits around eyes, ears, nose, or mouth + systemic / in life observation…
[9] = group: reproductive, reproductive / offspring survival early / dead fetuses / dead fetuses
[10] = group: developmental, developmental / developmental malformation / mouth / jaw / cleft palate + systemic / in life observation / body weight / fetal weight
[11] = group: maternal, systemic / in life observation / body weight / body weight + systemic / in life observation / body weight / body weight gain + systemic / in…
[12] = systemic / in life observation / body weight / body weight + systemic / in life observation / water consumption / water consumption
[13] = systemic / pathology microscopic / uterus / interstitial stromal tumor + systemic / in life observation / body weight / body weight + …
[14] = systemic / in life observation / body weight / body weight + systemic / in life observation / water consumption / water consumption + …
[15] = systemic / pathology microscopic / adrenal gland / pheochromocytoma nos + systemic / pathology microscopic / bone marrow / leukemia + …

SMILES: CC#C[C@]1(O)CC[C@H]2[C@@H]3CCC4=CC(=O)CCC4=C3[C@@H](c3ccc(N(C)C)cc3)C[C@@]21C [Mifepristone]
- LEL (rat [1]): 200 ppm
- LOAEL (rat [1]): > 600 ppm
- NEL (rat [1]): < 200 ppm
- NOAEL (rat [1]): ≥ 600 ppm

SMILES: Oc1ccccc1 [Phenol]
- LEL (rat [2]; [6]): 318 mg/kg/day
- LOAEL (rat [2]; [6]): > 318 mg/kg/day
- NEL (rat [2]; [6]): 69.8 mg/kg/day
- NOAEL (rat [2]; [6]): ≥ 318 mg/kg/day
- LOAEL (rat [2]; [7]): > 301 mg/kg/day
- NOAEL (rat [2]; [7]): ≥ 301 mg/kg/day
- LEL (rat [2]; [8]): 13.5 mg/kg/day
- NEL (rat [2]; [8]): < 13.5 mg/kg/day
- LEL (rat [2]; [9]): 318 mg/kg/day
- LOAEL (rat [2]; [9]): > 318 mg/kg/day
- NEL (rat [2]; [9]): 69.8 mg/kg/day
- NOAEL (rat [2]; [9]): ≥ 318 mg/kg/day
- LEL (mouse [3]; [10]): 280 mg/kg/day
- LOAEL (mouse [3]; [10]): > 280 mg/kg/day
- NEL (mouse [3]; [10]): 140 mg/kg/day
- NOAEL (mouse [3]; [10]): ≥ 280 mg/kg/day
- LEL (mouse [3]; [11]): 280 mg/kg/day
- LOAEL (mouse [3]; [11]): > 280 mg/kg/day
- NEL (mouse [3]; [11]): 140 mg/kg/day
- NOAEL (mouse [3]; [11]): ≥ 280 mg/kg/day
- LEL (mouse [4]; [12]): 375 mg/kg/day
- NEL (mouse [4]; [12]): < 375 mg/kg/day
- LOAEL (mouse [4]; [13]): > 750 mg/kg/day
- NOAEL (mouse [4]; [13]): ≥ 750 mg/kg/day
- LOAEL (rat [5]; [14]): > 250 mg/kg/day
- NOAEL (rat [5]; [14]): ≥ 250 mg/kg/day
- LEL (rat [5]; [15]): 125 mg/kg/day
- NEL (rat [5]; [15]): < 125 mg/kg/day

— EPA's ToxRefDB 2
